Measured values taken from patent publication US20140288052A1, “SUBSTITUTED BICYCLIC AZA-HETEROCYCLES AND ANALOGUES AS SIRTUIN MODULATORS” (GlaxoSmithKline, LLC, priority 2011, published 2014).

Key:
SIRT1 [1] = molecular target: T1, SIRT1 (Homo sapiens, UniProt Q96EB6); experiment: TAMRA based mass spectrometry assay of SIRT1 deacetylase activation; type: biochemical; conditions: TAMRA peptide substrate; for TAMRA EC1.5 (μM): concentration that results in 150% activation of SIRT1; for TAMRA % Fold Act: percent maximum fold activation relative to control (100%)
T1 sequence (Q96EB6 1-747): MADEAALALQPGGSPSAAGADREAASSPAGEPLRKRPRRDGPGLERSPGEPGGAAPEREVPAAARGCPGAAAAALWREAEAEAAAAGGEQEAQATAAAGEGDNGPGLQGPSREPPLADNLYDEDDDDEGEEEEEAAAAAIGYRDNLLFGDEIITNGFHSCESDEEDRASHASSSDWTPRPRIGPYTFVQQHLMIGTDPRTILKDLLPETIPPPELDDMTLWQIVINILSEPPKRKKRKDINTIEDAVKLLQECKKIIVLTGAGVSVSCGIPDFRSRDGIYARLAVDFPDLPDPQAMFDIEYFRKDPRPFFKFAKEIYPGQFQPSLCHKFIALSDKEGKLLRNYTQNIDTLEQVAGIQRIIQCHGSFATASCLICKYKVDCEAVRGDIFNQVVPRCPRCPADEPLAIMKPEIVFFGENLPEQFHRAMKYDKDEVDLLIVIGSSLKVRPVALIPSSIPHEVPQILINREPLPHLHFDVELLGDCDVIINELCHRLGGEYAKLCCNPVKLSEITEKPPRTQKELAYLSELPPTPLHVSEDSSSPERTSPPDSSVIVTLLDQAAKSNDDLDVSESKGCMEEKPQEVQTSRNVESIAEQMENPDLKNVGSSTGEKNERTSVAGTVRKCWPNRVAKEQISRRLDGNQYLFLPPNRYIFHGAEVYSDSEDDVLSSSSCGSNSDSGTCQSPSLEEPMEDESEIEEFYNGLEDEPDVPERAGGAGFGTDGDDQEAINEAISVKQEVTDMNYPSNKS
Excerpt: (§1) Mass spectrometry based assays were used to identify modulators of SIRT1 activity. The TAMRA based assay utilized a peptide having 20 amino acid residues as follows: Ac-EE-K(biotin)-GQSTSSHSK(Ac)NleSTEG-K(5TMR)-EE-NH2 (SEQ ID NO: 1), wherein K(Ac) is an acetylated lysine residue and Nle is a norleucine. The peptide was labeled with the fluorophore 5TMR (excitation 540 nm/emission 580 nm) at the C-terminus. The sequence of the peptide substrate was based on p53 with several modifications. In addition, the methionine residue naturally present in the sequence was replaced with the norleucine because the methionine may be susceptible to oxidation during synthesis and purification. The Trp based assay utilized a peptide having an amino acid residues as follows: Ac-R-H-K-K(Ac)-W-NH2 (SEQ ID NO: 2).
The TAMRA based mass spectrometry assay was conducted as follows: 0.5 μM peptide substrate and 120 μM βNAD^+ was incubated with 10 nM SIRT1 for 25 minutes at 25° C. in a reaction buffer (50 mM Tris-acetate pH 8, 137 mM NaCl, 2.7 mM KCl, 1 mM MgCl2, 5 mM DTT, 0.05% BSA). The SIRT1 protein was obtained by cloning the SirT1 gene into a T7-promoter containing vector, which was then transformed and expressed in BL21(DE3) bacterial cells. Test compound was added at varying concentrations to this reaction mixture and the resulting reactions were monitored. After the 25 minute incubation with SIRT1, 10 μL of 10% formic acid was added to stop the reaction. The resulting reactions were sealed and frozen for later mass spec analysis. Determination of the amount of deacetylated substrate peptide formed (or, alternatively, the amount of O-acetyl-ADP-ribose (OAADPR) generated) by the sirtuin-mediated NAD-dependent deacetylation reaction allowed for the precise measurement of relative SIRT1 activity in the presence of varying concentrations of the test compound versus control reactions lacking the test compound.
(§2) A control for inhibition of sirtuin activity was conducted by adding 1 μL of 500 mM nicotinamide as a negative control at the start of the reaction (e.g., permits determination of maximum sirtuin inhibition). A control for activation of sirtuin activity was conducted using 10 nM of sirtuin protein, with 1 μL of DMSO in place of compound, to determine the amount of deacetylation of the substrate at a given time point within the linear range of the assay. This time point was the same as that used for test compounds and, within the linear range, the endpoint represents a change in velocity. For the above assay, SIRT1 protein was expressed and purified as follows. The SirT1 gene was cloned into a T7-promoter containing vector and transformed into BL21(DE3). The protein was expressed by induction with 1 mM IPTG as an N-terminal His-tag fusion protein at 18° C. overnight and harvested at 30,000×g. Cells were lysed with lysozyme in lysis buffer (50 mM Tris-HCl, 2 mM Tris[2-carboxyethyl] phosphine (TCEP), 10 μM ZnCl2, 200 mM NaCl) and further treated with sonication for 10 min for complete lysis. The protein was purified over a Ni-NTA column (Amersham) and fractions containing pure protein were pooled, concentrated and run over a sizing column (Sephadex S200 26/60 global). The peak containing soluble protein was collected and run on an Ion-exchange column (MonoQ). Gradient elution (200 mM-500 mM NaCl) yielded pure protein. This protein was concentrated and dialyzed against dialysis buffer (20 mM Tris-HCl, 2 mM TCEP) overnight. The protein was aliquoted and frozen at −80° C. until further use.
Sirtuin-modulating compounds of Formula (I) that activated SIRT1 were identified using the assay described above and are shown below in Table 1. The EC1.5 values represent the concentration of test compounds that result in 150% activation of SIRT1. The EC1.5 values for the activating compounds of Formula (I) are represented by A (EC1.5<1 μM), B (EC1.5 1−25 μM), C (EC1.5>25 μM). […]

SIRT1 [2] = molecular target: T1, SIRT1; experiment: Trp mass spectrometry assay of SIRT1 deacetylase activation; type: biochemical; conditions: Trp peptide substrate; for TRP EC1.5 (μM): concentration that results in 150% activation of SIRT1; for TRP % Fold Act: percent maximum fold activation relative to control (100%)
Excerpt: as §1
The Trp mass spectrometry assay was conducted as follows. 0.5 μM peptide substrate and 120 μM βNAD^+ were incubated with 10 nM SIRT1 for 25 minutes at 25° C. in a reaction buffer (50 mM HEPES pH 7.5, […], 1 mM DTT, 0.05% BSA). The SIRT1 protein was obtained by cloning the SirT1 gene into a T7-promoter containing vector, which was then expressed in BL21(DE3) bacterial cells and purified as described in further detail below. Test compound was added at varying concentrations to this reaction mixture and the resulting reactions were monitored. After the 25 minute incubation with SIRT1, 10 μL of 10% formic acid was added to stop the reaction. The resulting reactions were sealed and frozen for later mass spec analysis. The relative SIRT1 activity was then determined by measuring the amount of O-acetyl-ADP-ribose (OAADPR) formed (or, alternatively, the amount of deacetylated Trp peptide generated) by the NAD-dependent sirtuin deacetylation reaction in the presence of varying concentrations of the test compound versus control reactions lacking the test compound. The degree to which the test agent activated deacetylation by SIRT1 was expressed as EC1.5 (i.e., the concentration of compound required to increase SIRT1 activity by 50% over the control lacking test compound), and Percent Maximum Activation (i.e., the maximum activity relative to control (100%) obtained for the test compound).
as §2
Sirtuin-modulating compounds of Formula (I) that activated SIRT1 were identified using the assay described above and are shown below in Table 1. […]

Compound	TAMRA EC1.5 (μM) (SIRT1 [1])	TAMRA % Fold Act (SIRT1 [1])	TRP EC1.5 (μM) (SIRT1 [2])	TRP % Fold Act (SIRT1 [2])
Cc1ccnc(C(=O)Nc2ccnc3cc(-c4ccccc4C(F)(F)F)nn23)c1 [Compound 105]	A (EC1.5<1 μM)	A (Fold activation≧350%)	C (EC1.5>25 μM)	B (Fold Activation<350%)
O=C(Nc1ccnc2cc(-c3ccccc3C(F)(F)F)nn12)c1cccc(OCC(O)CO)n1 (stereo not drawn) [Compound 65]	A (EC1.5<1 μM)	A (Fold activation≧350%)	A (EC1.5<1 μM)	A (Fold activation≧350%)
Cc1cnc(NC(=O)c2ccnn3cc(-c4ccccc4F)nc23)s1 [Compound 4]	C (EC1.5>25 μM)	B (Fold Activation<350%)	C (EC1.5>25 μM)	B (Fold Activation<350%)
O=C(Nc1nccs1)c1cc(N2CCOCC2)nn2cc(-c3cccc(C(F)(F)F)c3)nc12 [Compound 47]	C (EC1.5>25 μM)	B (Fold Activation<350%)	C (EC1.5>25 μM)	B (Fold Activation<350%)
Cc1cnc(NC(=O)c2cc(N3CCOCC3)nn3cc(-c4ccccc4C(F)(F)F)nc23)s1 [Compound 43]	A (EC1.5<1 μM)	B (Fold Activation<350%)	C (EC1.5>25 μM)	B (Fold Activation<350%)
O=C(Nc1cccc(N2CCOCC2)n1)c1ccnc2cc(-c3cccc(C(F)(F)F)c3)nn12 [Compound 90]	C (EC1.5>25 μM)	B (Fold Activation<350%)	C (EC1.5>25 μM)	B (Fold Activation<350%)
O=C(Nc1ccnc2cc(-c3cccc(C(F)(F)F)c3)nn12)c1ccncn1 [Compound 97]	C (EC1.5>25 μM)	B (Fold Activation<350%)	C (EC1.5>25 μM)	B (Fold Activation<350%)
O=C(Nc1ccncn1)c1ccnc2cc(-c3ccccc3C(F)(F)F)nn12 [Compound 78]	A (EC1.5<1 μM)	A (Fold activation≧350%)	B (EC1.5 1−25 μM)	B (Fold Activation<350%)
Cc1cnc(C(=O)Nc2ccnc3cc(-c4ccccc4C(F)(F)F)nn23)cn1 [Compound 108]	A (EC1.5<1 μM)	A (Fold activation≧350%)	C (EC1.5>25 μM)	B (Fold Activation<350%)
O=C(Nc1ccccn1)c1cc(N2CCOCC2)nn2cc(-c3ccccc3C(F)(F)F)nc12 [Compound 44]	B (EC1.5 1−25 μM)	B (Fold Activation<350%)	C (EC1.5>25 μM)	B (Fold Activation<350%)
O=C(Nc1ccncc1)c1cc(N2CCOCC2)nn2cc(-c3cccc(F)c3)nc12 [Compound 29]	C (EC1.5>25 μM)	B (Fold Activation<350%)	C (EC1.5>25 μM)	B (Fold Activation<350%)
Cc1cnc(NC(=O)c2ccnc3cc(-c4ccccc4C(F)(F)F)nn23)s1 [Compound 80]	B (EC1.5 1−25 μM)	B (Fold Activation<350%)	C (EC1.5>25 μM)	B (Fold Activation<350%)
O=C(Nc1ccnc2cc(-c3ccccc3C(F)(F)F)nn12)c1cccc(OC[C@@H](O)CO)n1 [Compound 115]	A (EC1.5<1 μM)	A (Fold activation≧350%)	A (EC1.5<1 μM)	A (Fold activation≧350%)
O=C(Nc1ccnc2cc(-c3cccc(C(F)(F)F)c3)nn12)c1cccc(N2CCC2)n1 [Compound 98]	C (EC1.5>25 μM)	B (Fold Activation<350%)	C (EC1.5>25 μM)	B (Fold Activation<350%)
O=C(Nc1ccnc2cc(-c3ccccc3C(F)(F)F)nn12)c1cncnc1 [Compound 104]	C (EC1.5>25 μM)	B (Fold Activation<350%)	C (EC1.5>25 μM)	B (Fold Activation<350%)
O=C(Nc1nccs1)c1ccnn2cc(-c3cccc(Cl)c3)nc12 [Compound 21]	C (EC1.5>25 μM)	B (Fold Activation<350%)	C (EC1.5>25 μM)	B (Fold Activation<350%)
Cc1csc(NC(=O)c2ccnc3cc(-c4cccc(C(F)(F)F)c4)nn23)n1 [Compound 89]	C (EC1.5>25 μM)	B (Fold Activation<350%)	C (EC1.5>25 μM)	B (Fold Activation<350%)
O=C(Nc1ccccn1)c1cc(N2CCOCC2)nn2cc(-c3cccc(C(F)(F)F)c3)nc12 [Compound 49]	C (EC1.5>25 μM)	B (Fold Activation<350%)	C (EC1.5>25 μM)	B (Fold Activation<350%)
